In brackets after ≈: the same amount, converted by molar mass. Where two headings read alike, the source gives them in different places.
Key:
[1] = test system: tested bacterial strains (Table 3); test: MBC versus MIC against the panel of Gram-positive and Gram-negative pathogens; assay type: cell-based; details: MBCs more than three-fold higher than MICs, strains of Table 3
Procedure: While the focus of these new N-(1,3,4-oxadiazol-2-yl)benzamides is towards N. gonorrhoeae, we proceeded to test their activity against other Gram-positive and Gram-negative pathogens. Intriguingly, HSGN-235, HSGN-237, and HSGN-238 had potent activity against the tested Gram-positive bacterial pathogens. For instance, all three compounds had potent activity against the staphylococcal strains, with MICs ranging from 0.25 to 1 µg/mL (Table 3). Furthermore, HSGN-235, HSGN-237, and HSGN-238 maintained potent activity against clinically relevant Gram-positive bacterial pathogens such as vancomycin-resistant enterococci (VRE) and Listeria monocytogenes (Table 3). Additionally, we moved to test if HSGN-235, HSGN-237, and HSGN-238 were active against other Gram-negative bacterial pathogens. […] This lack of activity against Gram-negative bacteria appears to be due to HSGN-235, HSGN-237, and HSGN-238 being a substrate for efflux.
The minimum inhibitory concentrations (MICs) of the tested compounds and control drugs, linezolid, vancomycin, and gentamicin, were determined using the broth microdilution method according to the guidelines outlined by the Clinical and Laboratory Standards Institute (CLSI) against clinically relevant bacterial (Staphylococcus aureus, MRSA, Escherichia coli, Enterococcus faecalis and Enterococcus faecium strains. S. aureus, MRSA, E. coli, Enterococcus faecalis and Enterococcus faecium were grown aerobically overnight on tryptone soy agar (TSA) plates at 37° C. Afterwards, a bacterial solution equivalent to 0.5 McFarland standard was prepared and diluted in cation-adjusted Mueller–Hinton broth (CAMHB) (for S. aureus, MRSA, and E. coli) to achieve a bacterial concentration of about 5 × 10^5 CFU/mL. Enterococcus faecalis and Enterococcus faecium 0.5 McFarland standard solution was diluted in tryptone soy broth (TSB) to achieve a bacterial concentration of about 5 × 10^5 CFU/mL. Compounds and control drugs were added in the first row of 96-well plates and serially diluted with the corresponding media containing bacteria. […]

[2] = test system: VRE. faecalisATCC 51575; test: MIC/MBC (CLSI broth microdilution) against VRE faecalis ATCC 51575; assay type: cell-based; details: Enterococcus, VRE faecalis ATCC 51575
Procedure: (§1) The minimum inhibitory concentrations (MICs) of the tested compounds and control drugs, linezolid, vancomycin, and gentamicin, were determined using the broth microdilution method according to the guidelines outlined by the Clinical and Laboratory Standards Institute (CLSI) against clinically relevant bacterial (Staphylococcus aureus, MRSA, Escherichia coli, Enterococcus faecalis and Enterococcus faecium strains. S. aureus, MRSA, E. coli, Enterococcus faecalis and Enterococcus faecium were grown aerobically overnight on tryptone soy agar (TSA) plates at 37° C. Afterwards, a bacterial solution equivalent to 0.5 McFarland standard was prepared and diluted in cation-adjusted Mueller–Hinton broth (CAMHB) (for S. aureus, MRSA, and E. coli) to achieve a bacterial concentration of about 5 × 10^5 CFU/mL. Enterococcus faecalis and Enterococcus faecium 0.5 McFarland standard solution was diluted in tryptone soy broth (TSB) to achieve a bacterial concentration of about 5 × 10^5 CFU/mL. Compounds and control drugs were added in the first row of 96-well plates and serially diluted with the corresponding media containing bacteria. Plates were then incubated as previously described. […] The minimum bactericidal concentration (MBC) was tested by spotting 4 µL from wells with no growth onto TSA plates. Plates were incubated at 37 ° C for at least 18 h before recording the MBC. The MBC was categorized as the lowest concentration that reduced bacterial growth by 99.9% [45, 46, 47].

[3] = test system: S. aureus ATCC 25923; test: MIC/MBC (CLSI broth microdilution) against S. aureus ATCC 25923; assay type: cell-based; details: Staphylococcus aureus, ATCC25923, S. aureus ATCC 25923
Procedure: as §1

[4] = test system: E. coli BW25113 (wild-type strain); test: MIC/MBC (CLSI broth microdilution) against E. coli BW25113 wild type; assay type: cell-based, Escherichia coli; details: E. coli BW25113 wild-type strain
Procedure: as §1

[5] = test system: N. gonorrhoeae; test: MIC against N. gonorrhoeae in presence of fetal bovine serum; assay type: cell-based; details: Neisseria gonorrhoeae, 24 h
[6] = test system: panel drug-resistant pathogenic N. gonorrhoeae strains; test: MIC/MBC against a panel of drug-resistant N. gonorrhoeae strains; assay type: cell-based, Neisseria gonorrhoeae; details: MBC the same as or one-fold higher than MIC
[7] = test system: human colorectal cells (Caco-2); test: In vitro cytotoxicity, MTS assay; assay type: cell-based
Procedure: HSGN-237 and -238 were assayed for potential cytotoxicity against a human colorectal adenocarcinoma (Caco-2) cell line, as described previously. Briefly, tested compounds were incubated with caco-2 cells for 24 and 48 h. Then, the cells were incubated with MTS (3-(4,5-dimethylthiazol-2-yl)-5-(3-carboxymethoxyphenyl)-2-(4-sulfophenyl)-2H-tetrazolium) reagent for 4 h before measuring the absorbance values (OD490).
Figure 2 In vitro cytotoxicity assessment of HSGN-237 and -238 (tested in triplicate) against human colorectal cells (Caco-2) after (A) 24 h, and (B) 48 h, using the 3-(4,5-dimethylthiazol-2-yl)-5-(3-carboxymethoxyphenyl)-2-(4-sulfophenyl)-2H-tetrazolium (MTS) assay. Results are presented as percent viable cells relative to DMSO (negative control). Error bars represent standard deviation values. A two-way ANOVA, with post hoc Dunnet’s multiple comparisons test, determined the statistical difference between the values obtained for the compound and DMSO. Asterisks denote statistically significant differences between treatments of cells with either HSGN-237 or -238 as compared to DMSO-treated cells. The experiment was repeated 3 independent times.

[8] = test system: E. faecalis ATCC 29212; test: MIC/MBC (CLSI broth microdilution) against E. faecalis ATCC 29212; assay type: cell-based; details: Enterococcus faecalis, ATCC29212, E. faecalis ATCC 29212
Procedure: as §1

[9] = test system: N. gonorrhoeae strain 181; test: MIC by broth microdilution against N. gonorrhoeae strain 181; assay type: cell-based, Neisseria gonorrhoeae; details: Neisseria gonorrhoeae; N. gonorrhoeae strain 181; read-out: MIC
Procedure: (§2) Briefly, bacteria were grown overnight on chocolate agar II at 37° C in the presence of 5% CO2. Afterwards, a bacterial suspension equivalent to 1.0 McFarland standard was prepared and diluted in brucella broth supplemented with yeast extract, neopeptone, hematin, pyridoxal, and NAD. Test agents were added in the first row of the 96-well plates and serially diluted along the plates. Plates were then incubated at 37° C in the presence of 5% CO2 for 24 h. […] Plates were then incubated at 37 ° C in the presence of 5% CO2 for 24 h. The MBC was categorized as the lowest concentration that reduced bacterial growth by 99.9% [45, 46, 47].

[10] = test system: N. gonorrhoeae 197; test: MIC/MBC against N. gonorrhoeae clinical isolate 197; assay type: cell-based; details: Neisseria gonorrhoeae
Procedure: as §2

[11] = test system: E. coli JW55031 (TolC Mutant); test: MIC/MBC (CLSI broth microdilution) against E. coli TolC mutant; assay type: cell-based; details: Escherichia coli
Procedure: as §1

[12] = test system: N. gonorrhoeae 200; test: MIC/MBC against N. gonorrhoeae clinical isolate 200; assay type: cell-based; details: Neisseria gonorrhoeae
Procedure: as §2

[13] = test system: VRE. faecalis ATCC 51299; test: MIC/MBC (CLSI broth microdilution) against VRE faecalis ATCC 51299; assay type: cell-based; details: Enterococcus, VRE faecalis ATCC 51299
Procedure: as §1

[14] = test system: N. gonorrhoeae 165; test: MIC/MBC against N. gonorrhoeae clinical isolate 165; assay type: cell-based; details: Neisseria gonorrhoeae
Procedure: as §2

[15] = test system: N. gonorrhoeae 194; test: MIC/MBC against N. gonorrhoeae clinical isolate 194; assay type: cell-based; details: Neisseria gonorrhoeae
Procedure: as §2

[16] = test system: N. gonorrhoeae 166; test: MIC/MBC against N. gonorrhoeae clinical isolate 166; assay type: cell-based; details: Neisseria gonorrhoeae
Procedure: as §2

In the case of `O=C(Nc1nnc(-c2ccc(Cl)s2)o1)c1ccc(OC(F)(F)F)cc1` [HSGN-238, N-(5-(5-Chlorothiophen-2-yl)-1,3,4-oxadiazol-2-yl)-4-(trifluoromethoxy)benzamide], the “type of activity from MBC versus MIC” value [1] is reported as “bacteriostatic agents”, the MBC ([2]; read-out: MBC) is reported as 32 µg/mL (≈ 82.1 µM) and the MIC ([2]; read-out: MIC) is reported as 1 µg/mL (≈ 2.57 µM). It also gave an MBC ([3]; read-out: MBC) greater than 64 µg/mL, an MIC ([3]; read-out: MIC) of 0.25 µg/mL (≈ 0.641 µM) and an MIC [4] greater than 8 µg/mL. It also gave an MBC ([4]; Escherichia coli, read-out: MBC) greater than 8 µg/mL, an MIC ([4]; Escherichia coli, read-out: MIC) greater than 8 µg/mL and an MIC ([5]; 1% FBS added to the media) of 0.25 µg/mL. For the same molecule, the MIC ([5]; 5% FBS added to the media) was 1 µg/mL, the MIC ([5]; 10% FBS added to the media) was 1 µg/mL and the “type of activity from MBC versus MIC” value [6] was “bactericidal activity”. For the same molecule, the non-toxic concentration ([7]; Caco-2 cells, 24 and 48 h, MTS assay) was “up to 16 µg/mL”, the “non-toxic concentration relative to MIC against N. gonorrhoeae” value ([7]; Caco-2 non-toxic concentration versus corresponding MIC) was 128 times and the MBC ([8]; read-out: MBC) was 32 µg/mL (≈ 82.1 µM). It also gave an MIC ([8]; read-out: MIC) of 1 µg/mL (≈ 2.57 µM), an MIC [9] of 0.125 µg/mL (≈ 0.321 µM) and an MBC [10] of 0.125 µg/mL (≈ 0.321 µM). It also gave an MIC [10] of 0.125 µg/mL (≈ 0.321 µM), an MBC [11] of 32 µg/mL (≈ 82.1 µM) and an MIC [11] of 0.06 µg/mL (≈ 0.154 µM). The MBC [12] was 0.125 µg/mL (≈ 0.321 µM), the MIC [12] was 0.125 µg/mL (≈ 0.321 µM) and the MBC ([13]; read-out: MBC) was 8 µg/mL (≈ 20.5 µM). The MIC ([13]; read-out: MIC) was 0.25 µg/mL (≈ 0.641 µM), the MBC [14] was 0.25 µg/mL (≈ 0.641 µM) and the MIC [14] was 0.125 µg/mL (≈ 0.321 µM). For the same molecule, the MBC [15] was 0.125 µg/mL (≈ 0.321 µM), the MIC [15] was 0.125 µg/mL (≈ 0.321 µM) and the MBC [16] was 0.25 µg/mL (≈ 0.641 µM). The MIC [16] was 0.125 µg/mL (≈ 0.321 µM).
